Experimental data published in publication PMC9873282, “Design, synthesis and evaluation of quinoline-O-carbamate derivatives as multifunctional agents for the treatment of Alzheimer’s disease” (Journal of Enzyme Inhibition and Medicinal Chemistry, 2023).
Values joined by “and” are separate entries in the source; they are usually repeats but may differ in a detail not shown here. Identical values can stand only once.

What was measured:
[1] = molecular target: T1, eeAChE (Electrophorus electricus, UniProt O42275); assay: biochemical; design: species or system electric eel; conditions: AChE from electric eel; read-out: IC50 ± SD eeAChE
T1 construct: eeAChE, from the electric eel; purchased Sigma Aldrich; host or cells: electric eel (natural source)
T1 sequence (O42275 24-633): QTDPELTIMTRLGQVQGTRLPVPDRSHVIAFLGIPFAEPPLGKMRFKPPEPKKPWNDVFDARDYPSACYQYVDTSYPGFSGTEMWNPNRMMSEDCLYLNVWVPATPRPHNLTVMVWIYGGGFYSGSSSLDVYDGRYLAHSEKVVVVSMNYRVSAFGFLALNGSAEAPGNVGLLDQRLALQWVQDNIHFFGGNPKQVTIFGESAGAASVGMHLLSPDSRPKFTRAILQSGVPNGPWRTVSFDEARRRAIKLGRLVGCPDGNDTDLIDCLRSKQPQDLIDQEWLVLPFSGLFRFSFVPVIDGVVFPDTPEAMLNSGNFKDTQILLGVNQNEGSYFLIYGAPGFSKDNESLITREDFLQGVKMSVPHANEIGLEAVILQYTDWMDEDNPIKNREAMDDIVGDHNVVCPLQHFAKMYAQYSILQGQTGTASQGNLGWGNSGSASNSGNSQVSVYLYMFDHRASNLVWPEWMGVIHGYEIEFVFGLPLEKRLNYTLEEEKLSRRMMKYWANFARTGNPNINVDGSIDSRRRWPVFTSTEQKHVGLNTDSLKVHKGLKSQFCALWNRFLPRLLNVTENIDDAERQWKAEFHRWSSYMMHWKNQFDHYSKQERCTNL
Description: (§1) The inhibitory activities of the synthesised compounds against eeAChE (from electric eel) and eqBuChE (from equine serum) were tested by the modified Ellman’s method[26]^,[27]. […] The determination of AChE and BuChE inhibitory potency of the synthesised compounds were evaluated by Ellman assay, the detailed procedure referred to our previous work[26]^,[27].

[2] = molecular target: T2, eqBuChE (Equus caballus, UniProt P81908); assay: biochemical; design: species or system equine
T2 construct: eqBuChE, from equine serum; purchased Sigma Aldrich; host or cells: equine serum (natural source)
T2 sequence (P81908 whole entry): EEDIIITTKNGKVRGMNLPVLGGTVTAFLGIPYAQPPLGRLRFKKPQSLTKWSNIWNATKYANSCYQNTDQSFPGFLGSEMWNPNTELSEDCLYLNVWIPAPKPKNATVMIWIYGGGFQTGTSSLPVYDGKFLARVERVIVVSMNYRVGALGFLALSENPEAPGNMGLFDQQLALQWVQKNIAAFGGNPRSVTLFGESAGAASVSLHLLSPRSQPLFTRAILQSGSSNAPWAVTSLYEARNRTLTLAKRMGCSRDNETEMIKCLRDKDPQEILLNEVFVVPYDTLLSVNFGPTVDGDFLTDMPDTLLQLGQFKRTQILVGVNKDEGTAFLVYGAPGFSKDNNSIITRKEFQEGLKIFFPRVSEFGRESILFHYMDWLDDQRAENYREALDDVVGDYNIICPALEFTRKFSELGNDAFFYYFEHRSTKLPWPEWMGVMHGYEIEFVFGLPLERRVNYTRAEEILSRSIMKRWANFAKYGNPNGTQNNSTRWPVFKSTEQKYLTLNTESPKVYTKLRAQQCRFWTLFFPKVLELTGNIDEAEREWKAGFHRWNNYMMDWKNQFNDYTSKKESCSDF
Description: as §1

[3] = molecular target: T3, hAChE (Homo sapiens, UniProt P22303); assay: biochemical; conditions: from human erythrocytes; read-out: IC50 ± SD hAChE
T3 construct: hAChE, from human erythrocytes AChE; purchased Sigma Aldrich; host or cells: human erythrocytes (natural source)
T3 sequence (P22303 32-617 isoform P22303-2 limits assumed): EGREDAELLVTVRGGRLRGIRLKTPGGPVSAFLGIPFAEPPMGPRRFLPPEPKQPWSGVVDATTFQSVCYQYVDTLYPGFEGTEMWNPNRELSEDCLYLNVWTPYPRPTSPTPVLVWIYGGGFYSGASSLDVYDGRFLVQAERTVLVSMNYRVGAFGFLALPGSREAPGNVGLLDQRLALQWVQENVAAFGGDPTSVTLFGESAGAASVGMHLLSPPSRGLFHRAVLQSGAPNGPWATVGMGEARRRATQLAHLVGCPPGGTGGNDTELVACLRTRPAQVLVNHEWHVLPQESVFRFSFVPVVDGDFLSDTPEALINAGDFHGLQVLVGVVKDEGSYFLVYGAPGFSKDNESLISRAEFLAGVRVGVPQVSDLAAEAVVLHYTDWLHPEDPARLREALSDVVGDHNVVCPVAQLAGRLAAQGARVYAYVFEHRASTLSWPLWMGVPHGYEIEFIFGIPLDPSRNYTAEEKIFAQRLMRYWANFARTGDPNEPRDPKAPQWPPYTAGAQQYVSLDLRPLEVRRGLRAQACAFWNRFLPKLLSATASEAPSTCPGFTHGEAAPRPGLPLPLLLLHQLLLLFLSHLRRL
Description: (§2) Acetylcholinesterase (eeAChE, from the electric eel; hAChE, from human erythrocytes AChE), butyrylcholinesterase (eqBuChE, from equine serum; hBuChE, human serum BuChE), 5,5′-dithiobis-2-nitrobenzoic acid (Ellman’s reagent, DTNB), acetylthiocholine chloride (ATC), and butyrylthiocholine chloride (BTC) were purchased form Sigma Aldrich. The determination of AChE and BuChE inhibitory potency of the synthesised compounds were evaluated by Ellman assay, the detailed procedure referred to our previous work[26]^,[27].

[4] = molecular target: T4, hBuChE (Homo sapiens, UniProt P06276); assay: biochemical
T4 construct: hBuChE, human serum BuChE; purchased Sigma Aldrich; host or cells: human serum (natural source)
T4 sequence (P06276 29-602): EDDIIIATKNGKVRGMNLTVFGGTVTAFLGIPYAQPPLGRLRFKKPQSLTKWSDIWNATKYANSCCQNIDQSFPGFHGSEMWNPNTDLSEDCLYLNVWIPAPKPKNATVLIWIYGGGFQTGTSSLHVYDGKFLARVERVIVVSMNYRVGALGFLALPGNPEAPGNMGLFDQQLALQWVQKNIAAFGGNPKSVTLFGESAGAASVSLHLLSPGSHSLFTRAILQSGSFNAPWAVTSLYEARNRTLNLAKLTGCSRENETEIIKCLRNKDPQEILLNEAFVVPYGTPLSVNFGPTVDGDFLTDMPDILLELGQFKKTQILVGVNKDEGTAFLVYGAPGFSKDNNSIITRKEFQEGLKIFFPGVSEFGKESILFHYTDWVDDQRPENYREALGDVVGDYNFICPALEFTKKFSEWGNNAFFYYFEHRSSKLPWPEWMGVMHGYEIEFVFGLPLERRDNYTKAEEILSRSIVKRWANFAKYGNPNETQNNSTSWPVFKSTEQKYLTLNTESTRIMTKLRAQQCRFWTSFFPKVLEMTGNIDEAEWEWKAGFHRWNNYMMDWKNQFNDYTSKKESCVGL
Description: as §2

[5] = tested on: BV-2 cells; assay: Cytotoxicity on BV-2 cells (CCK8 assay); assay type: cell-based; conditions: compounds at 2 µM
Description: (§3) Firstly, the cytotoxicity of compounds 3a, 3c, 3e, 3f, 3k, 3m and 3n were tested using CCK8 assay.
BV-2 cells were cultured in DMEM containing 10% foetal bovine serum, 100 U/mL penicillin, 100 U/mL streptomycin, and 1% nonessential amino acid at 37 °C with 5% CO2.
BV-2 cells in logarithmic growth stage were digested and centrifuged, and then resuspended in DMEM medium containing 1% penicillin-streptomycin and 10% foetal bovine serum. The cells was adjusted to 1.2 × 10^4 cells/well, and then seeded evenly in 96-well cell culture plates. The cells were incubated for 36 h at 37 °C with 5% CO2. After incubation, the cells were added to different concentrations (10 and 2 µM) of tested compounds, and incubated for 24 h at 37 °C with 5% CO2. Then, 10 µL CCK-8 solution was added to each well, and incubated for another 1 h at 37 °C with 5% CO2. The OD values were tested at […]. The cell viability (%) = {(ODdrug−ODblank)}/{(ODcontrol−ODblank)} × 100%.

[6] = tested on: IL-1β; assay: IL-1β production in LPS-stimulated BV-2 cells (ELISA); assay type: cell-based; conditions: 1 µg/mL LPS 24 h
Description: as §3
(§4) BV-2 cells (2 × 10^5 cells/well) were seeded in a 24-well cell culture plates. The cells were divided into blank control group, model group (1 µg/mL LPS), LPS + 2 µM compound group, LPS + 1 µM compound group. Each drug group was pre-treated with corresponding concentration of drug solution for 8 h. After 8 h, the culture medium was aspirated out. Except for the blank control group, which was added with DMEM medium, the other groups were stimulated with 1 µg/mL LPS for 24 h. Then cell supernatant was aspirated and centrifuged at 3000 rpm for 3 min. The content of NO in cell culture supernatant was determined by Griess method, and the levels of cytokines IL-6 and IL-1β in cell culture supernatant were determined by IL-6 ELISA kit and IL-1β ELISA kit, respectively.

[7] = tested on: NO; assay: NO release in LPS-stimulated BV-2 cells (Griess method); assay type: cell-based; conditions: 1 µg/mL LPS 24 h
Description: as §3, §4

[8] = tested on: PC12 cells; assay: Cytotoxicity on PC12 cells; assay type: cell-based; conditions: at concentration below 40 µM
Description: The neuroprotective effect of compounds 3a, 3c, 3e, 3f, 3k, 3m, and 3n on Aβ25–35-induced PC12 cells injury were evaluated using CCK-8 assay. […] Furthermore, as shown in Figure 12(B), when PC12 cells were exposed to 25 µM Aβ25-35, the cell viability sharply declined to 57.3% (p < 0.01) compared with untreated group.
The PC12 cells during the logarithmic growth phase were digested and centrifuged with pancreatic enzyme solution, the cells were resuspended by adding the prepared media solution, and piped evenly with a pipette to seed in a 96-well cell culture plate (cell concentration adjusted to 2.0 × 10^4 cell·mL^−1). Each well was added 100 µL complete medium was added to each well and incubated at 37 °C and 5% CO2 for 24 h.

[9] = tested on: AChE; assay: AChE activity in AlCl3-induced zebrafish AD model tissue; assay type: in vivo
[10] = Rat plasma stability; conditions: after 3 h incubation
Description: (§5) • 2.The stability of 3f was performed in rat liver microsomes. The rat liver microsomes was purchased from Dalian Meilun Biotechnology Co., Ltd, DaLian, China. […] Solution B (25 mL) contained G-6-P-DH (1000 U), Na-Citrate2 (200 mg), and H2O was used as a solvent. NADPH solution (1 mM) was composed by solution A and solution B (v/v = 5:1). […] The reaction was started by the addition of NADPH. The total mixture (200 µL) was incubated at 37 °C. Cold methanol (600 µL) was added at 0, 5, 15, 20, 30, 45 and 60 min, respectively, to stop the reaction. Samples were centrifuged at 13000 rpm for 10 min at 4 °C, and 100 µL supernatant was removed and analysed by UPLC-MS/MS. The stability results were presented as % remaining vs. time. The experiments were conducted in triplicate. • 3.The stability of 3f was performed in rat plasma. […] The supernatant was dried and redissolved in 100 µL methanol. After centrifugation, the supernatant was analysed by UPLC-MS/MS. The stability data were presented as remaining percentage vs time.

[11] = Rat liver microsomes stability; conditions: after 60 min incubation
Description: as §5

Question: Which results are given for `CCN(CC)C(=O)Oc1cccc2ncccc12` [Compound 3f, Quinolin-5-yl diethylcarbamate]?
Answer: IC50 [1]: 1300 ± 20 nM; IC50 ([2]; BuChE from equine serum, read-out: IC50 ± SD eqBuChE): 810 ± 60 nM; SI = IC50 (AChE)/IC50 (BuChE) ([2]; eeAChE/eqBuChE): 1.6; IC50 [3]: 5.6 ± 0.07 µM; IC50 ([4]; from human serum, read-out: IC50 ± SD hBuChE): 2340 nM and 2300 nM; SI = IC50 (AChE)/IC50 (BuChE) ([4]; hAChE/hBuChE): 2.4; cell viability of BV-2 cells [5]: did not show obvious change; levels of IL-1β compared with model group [6]: significantly decreased; release volume of NO [7]: significantly decreased; cytotoxicity on PC12 cells [8]: did not show any cytotoxicity; AChE activity ([9]; 0.08 µM): 98095.7 nmol/min/g; AChE activity ([9]; 0.16 µM): 64663.2 nmol/min/g; AChE activity ([9]; 0.32 µM): 102433.6 nmol/min/g; remaining amount in rat plasma [10]: 95.5%; remaining amount in rat liver microsomes [11]: 104.4%
